Assay results: patent US9266883B2, “Ring-fused bicyclic pyridyl derivatives as FGFR4 inhibitors” (Novartis AG, priority 2013, dated 2016)
Several values for one entry are separate records, joined by “and”; a condition that tells them apart may be missing. Equal entries are not always repeated. Structures can show the parent of a compound that is named as a salt. Where two headings read alike, the source gives them in different places.

Experiments:
Tel-FGFR4 = Tel-FGFR4 (Homo sapiens (Human), UniProt P22455); assay: In vitro cellular kinase assay for FGFR4 (BaF3-Tel-FGFR4 cells, MSD capture ELISA of tyrosine phosphorylation); assay type: cell-based
[1] = molecular target: FGFR4 (GST-FGFR4(388-802)) (Homo sapiens (Human), UniProt P22455); assay: In-vitro biochemical kinase assay for FGFR4 (Caliper microfluidic mobility shift)
[2] = Cellular BaF3 FGFR4 assay, read-out: Cellular IC50
[3] = biochemical FGFR4 assay, read-out: Biochemical IC50
[4] = BaF3-Tel-FGFR4 cells, 1 hour incubation, read-out: Cellular BaF3 FGFR4 IC50
[5] = read-out: Biochemical FGFR4 IC50

Sequence of FGFR4 (GST-FGFR4(388-802)) (P22455 388-802): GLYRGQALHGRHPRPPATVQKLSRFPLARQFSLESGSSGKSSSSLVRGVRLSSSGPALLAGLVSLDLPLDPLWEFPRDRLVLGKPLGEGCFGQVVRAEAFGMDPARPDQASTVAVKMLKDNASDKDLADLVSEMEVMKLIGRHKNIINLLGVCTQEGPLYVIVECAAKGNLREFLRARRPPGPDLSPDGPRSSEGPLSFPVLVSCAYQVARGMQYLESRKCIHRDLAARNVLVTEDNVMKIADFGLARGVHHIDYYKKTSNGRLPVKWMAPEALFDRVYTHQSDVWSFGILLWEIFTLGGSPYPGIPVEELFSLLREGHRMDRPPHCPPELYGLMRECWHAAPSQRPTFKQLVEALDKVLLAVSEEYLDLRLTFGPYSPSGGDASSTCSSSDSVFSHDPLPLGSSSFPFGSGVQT
Sequence of Tel-FGFR4 (P22455 other isoform, or with tags, fused parts or gaps): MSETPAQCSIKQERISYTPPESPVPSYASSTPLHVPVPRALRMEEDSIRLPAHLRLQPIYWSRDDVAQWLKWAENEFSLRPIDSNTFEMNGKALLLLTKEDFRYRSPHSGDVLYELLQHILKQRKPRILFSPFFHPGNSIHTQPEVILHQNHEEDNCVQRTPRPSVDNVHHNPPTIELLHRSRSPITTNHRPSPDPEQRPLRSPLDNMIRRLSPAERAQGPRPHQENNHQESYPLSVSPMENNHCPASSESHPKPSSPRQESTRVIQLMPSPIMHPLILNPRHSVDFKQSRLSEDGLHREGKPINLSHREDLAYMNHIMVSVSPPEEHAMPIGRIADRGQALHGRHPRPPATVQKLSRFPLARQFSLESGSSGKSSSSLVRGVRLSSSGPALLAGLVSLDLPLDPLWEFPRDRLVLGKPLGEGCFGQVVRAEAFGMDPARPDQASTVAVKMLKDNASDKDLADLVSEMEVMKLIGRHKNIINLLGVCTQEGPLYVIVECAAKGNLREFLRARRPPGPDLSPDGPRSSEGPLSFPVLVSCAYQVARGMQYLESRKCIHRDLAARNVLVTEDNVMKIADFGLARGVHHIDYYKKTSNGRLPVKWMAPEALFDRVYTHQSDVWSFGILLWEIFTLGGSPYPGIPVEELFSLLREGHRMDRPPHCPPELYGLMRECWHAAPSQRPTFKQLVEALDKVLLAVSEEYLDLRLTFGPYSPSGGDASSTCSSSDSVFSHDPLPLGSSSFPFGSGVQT

| Structure (SMILES) | IC50 (Tel-FGFR4; [2]) [nM] | IC50 [1, 3] [nM] | IC50 (Tel-FGFR4; [4]) | IC50 [1, 5] [nM] |
| --- | --- | --- | --- | --- |
| CC(C)Oc1cc(NC(=O)N2CCCc3cc(CN4CCNC(=O)C4)c(C=O)nc32)ncc1C#N [N-(5-cyano-4-isopropoxypyridin-2-yl)-7-formyl-6-((3-oxopiperazin-1-yl)methyl)-3,4-dihydro-1,8-naphthyridine-1(2H)-carboxamide] | 23.5 | 1.6 | – | – |
| O=Cc1nc2c(cc1CO)CCCN2C(=O)Nc1ncc(Cl)c(O[C@H]2CCOC2)n1 [Example 69, (S)-N-(5-chloro-4-((tetrahydrofuran-3-yl)oxy)pyrimidin-2-yl)-7-formyl-6-(hydroxymethyl)-3,4-dihydro-1,8-naphthyridine-1(2H)-carboxamide] | – | – | 95 nM | 54 |
| COC[C@@H](C)Nc1cc(NC(=O)N2CCCc3cc(CN4CCOCC4=O)c(C=O)nc32)ncc1C#N [(R)-N-(5-cyano-4-((1-methoxypropan-2-yl)amino)pyridin-2-yl)-7-formyl-6-((3-oxomorpholino)methyl)-3,4-dihydro-1,8-naphthyridine-1(2H)-carboxamide] | 4.6 | 2.4 | – | – |
| O=Cc1nc2c(cc1CO)CCCN2C(=O)Nc1ccc(F)cn1 [Example 76, N-(5-fluoropyridin-2-yl)-7-formyl-6-(hydroxymethyl)-3,4-dihydro-1,8-naphthyridine-1(2H)-carboxamide] | – | – | 1610 nM and > 3000 nM | 620 |
| O=Cc1nc2c(cc1CO)CCCN2C(=O)Nc1cc(O[C@H]2CCOC2)c(Cl)cn1 [Example 72, (S)-N-(5-chloro-4-((tetrahydrofuran-3-yl)oxy)pyridin-2-yl)-7-formyl-6-(hydroxymethyl)-3,4-dihydro-1,8-naphthyridine-1(2H)-carboxamide] | – | – | 57.5 nM | 21 |
| CCCCC(O)c1ccc(NC(=O)N2CCCc3ccc(C=O)nc32)nc1 (racemic) [Example 22, 7-formyl-N-(5-(1-hydroxypentyl)pyridin-2-yl)-3,4-dihydro-1,8-naphthyridine-1(2H)-carboxamide] | – | – | 2610 nM | 230 |
| COC(C)(C)CNc1cc(NC(=O)N2CCCc3cc(CN(C)C(C)=O)c(C=O)nc32)ncc1C#N [N-(5-cyano-4-((2-methoxy-2-methylpropyl)amino)pyridin-2-yl)-7-formyl-6-((N-methylacetamido)methyl)-3,4-dihydro-1,8-naphthyridine-1(2H)-carboxamide] | 4.9 | 0.7 | – | – |
| N#Cc1cnc(NC(=O)N2CCCc3ccc(C=O)nc32)cc1C#N [Example 17, N-(4,5-dicyanopyridin-2-yl)-7-formyl-3,4-dihydro-1,8-naphthyridine-1(2H)-carboxamide] | – | – | 914 nM | 40 |
| COCCNc1cc(NC(=O)N2CCCc3cc(CN(C)C(=O)CN(C)C)c(C=O)nc32)ncc1C#N [N-(5-cyano-4-((2-methoxyethyl)amino)pyridin-2-yl)-6-((2-(dimethylamino)-N-methylacetamido)methyl)-7-formyl-3,4-dihydro-1,8-naphthyridine-1(2H)-carboxamide] | 6.1 | 0.2 | – | – |
| CCc1cc(NC(=O)N2CCCc3cc(CN4CCN(C)CC4=O)c(C=O)nc32)ncc1C#N [N-(5-cyano-4-ethylpyridin-2-yl)-7-formyl-6-((4-methyl-2-oxopiperazin-1-yl)methyl)-3,4-dihydro-1,8-naphthyridine-1(2H)-carboxamide] | 22.5 | 8.9 | – | – |
| CC(C)Oc1cc(NC(=O)N2CCCc3cc(CN4C[C@H](N(C)C)CC4=O)c(C=O)nc32)ncc1C#N [(R)-N-(5-cyano-4-isopropoxypyridin-2-yl)-6-((4-(dimethylamino)-2-oxopyrrolidin-1-yl)methyl)-7-formyl-3,4-dihydro-1,8-naphthyridine-1(2H)-carboxamide] | 6.7 | 0.3 | – | – |
| COCCNc1cc(NC(=O)N2CCCc3cc(CN4CCC(N(C)C)C4)c(C=O)nc32)ncc1C#N (stereo not shown) [N-(5-cyano-4-((2-methoxyethyl)amino)pyridin-2-yl)-6-((3-(dimethylamino)pyrrolidin-1-yl)methyl)-7-formyl-3,4-dihydro-1,8-naphthyridine-1(2H)-carboxamide] | 63 | 0.5 | – | – |
| COC[C@H](C)Nc1cc(NC(=O)N2CCCc3cc(CN4CCOCC4=O)c(C=O)nc32)ncc1C#N [(S)-N-(5-cyano-4-((1-methoxypropan-2-yl)amino)pyridin-2-yl)-7-formyl-6-((3-oxomorpholino)methyl)-3,4-dihydro-1,8-naphthyridine-1(2H)-carboxamide] | 5.7 | 2.5 | – | – |
| N#Cc1cnc(NC(=O)N2CCCc3ccc(C=O)nc32)cc1C1=CCOCC1 [Example 30, N-(5-cyano-4-(3,6-dihydro-2H-pyran-4-yl)pyridin-2-yl)-7-formyl-3,4-dihydro-1,8-naphthyridine-1(2H)-carboxamide] | – | – | 428 nM | 5.5 |
| N#Cc1cnc(NC(=O)N2CCCc3cc(CO)c(C=O)nc32)cc1OC1CCOCC1 [Example 53, N-(5-cyano-4-((tetrahydro-2H-pyran-4-yl)oxy)pyridin-2-yl)-7-formyl-6-(hydroxymethyl)-3,4-dihydro-1,8-naphthyridine-1(2H)-carboxamide] | – | – | 36 nM | 2.9 |
| COCCOc1cc(NC(=O)N2CCCc3cc(CN4CCNCC4=O)c(C=O)nc32)ncc1C#N [N-(5-cyano-4-(2-methoxyethoxyl)pyridin-2-yl)-7-formyl-6-((2-oxopiperazin-1-yl)methyl)-3,4-dihydro-1,8-naphthyridine-1(2H)-carboxamide trifluoroacetate] | 56 | 4.6 | – | – |
| CN1CCN(Cc2cc3c(nc2C=O)N(C(=O)Nc2cc(OCCF)c(C#N)cn2)CCC3)C(=O)C1 [N-(5-cyano-4-(2-fluoroethoxyl)pyridin-2-yl)-7-formyl-6-((4-methyl-2-oxopiperazin-1-yl)methyl)-3,4-dihydro-1,8-naphthyridine-1(2H)-carboxamide] | 7.1 | 2.4 | – | – |
| CC(=O)N(C)Cc1cc2c(nc1C=O)N(C(=O)Nc1cc(SC(C)C)c(C#N)cn1)CCC2 [Example 240, N-(5-cyano-4-(isopropylthio)pyridin-2-yl)-7-formyl-6-((N-methylacetamido)methyl)-3,4-dihydro-1,8-naphthyridine-1(2H)-carboxamide] | – | – | 11.1 nM | < 0.1 |
| COCCNc1cc(NC(=O)N2CCC(O)c3cc(CN4CCN(C)CC4=O)c(C=O)nc32)ncc1C#N (stereo not shown) [N-(5-cyano-4-((2-methoxyethyl)amino)pyridin-2-yl)-7-formyl-4-hydroxy-6-((4-methyl-2-oxopiperazin-1-yl)methyl)-3,4-dihydro-1,8-naphthyridine-1(2H)-carboxamide] | 51.3 | 1.8 | – | – |
| COCCNc1cc(NC(=O)N2CCCc3cc(-c4ccncc4)c(C=O)nc32)ncc1C#N [N-(5-cyano-4-((2-methoxyethyl)amino)pyridin-2-yl)-7-formyl-6-(pyridin-4-yl)-3,4-dihydro-1,8-naphthyridine-1(2H)-carboxamide] | 14.5 | 3.1 | – | – |

The remaining molecules from weak to strong by IC50 (Tel-FGFR4; [2]), led by results:

| IC50 (Tel-FGFR4; [2]) [nM] | IC50 [1, 3] [nM] | Structure (SMILES) | IC50 (Tel-FGFR4; [4]) | IC50 [1, 5] [nM] |
| --- | --- | --- | --- | --- |
| 223 | 57 | N#Cc1cnc(NC(=O)N2CCCc3cc(C(F)F)c(C=O)nc32)cc1Cl [N-(4-chloro-5-cyanopyridin-2-yl)-6-(difluoromethyl)-7-formyl-3,4-dihydro-1,8-naphthyridine-1(2H)-carboxamide] | – | – |
| 95.5 | 3.3 | CC(C)Oc1cc(NC(=O)N2c3nc(C=O)c(Br)cc3CC[C@@H]2C)ncc1C#N [(S)-6-bromo-N-(5-cyano-4-isopropoxypyridin-2-yl)-7-formyl-2-methyl-3,4-dihydro-1,8-naphthyridine-1(2H)-carboxamide] | – | – |
| 21 | 1.2 | CC(C)Oc1cc(NC(=O)N2CCCc3cc(C(F)F)c(C=O)nc32)ncc1C#N [N-(5-cyano-4-isopropoxypyridin-2-yl)-6-(difluoromethyl)-7-formyl-3,4-dihydro-1,8-naphthyridine-1(2H)-carboxamide] | – | – |
| 12.5 | 1.2 | CC(C)Oc1cc(NC(=O)N2CCCc3cc(CN(C)C(=O)C(C)C)c(C=O)nc32)ncc1C#N [N-(5-cyano-4-isopropoxypyridin-2-yl)-7-formyl-6-((N-methylisobutyramido)methyl)-3,4-dihydro-1,8-naphthyridine-1(2H)-carboxamide] | – | – |
| 9.8 | 1.6 | CCN1CCN(Cc2cc3c(nc2C=O)N(C(=O)Nc2cc(NCCOC)c(C#N)cn2)CCC3)C(=O)C1 [N-(5-cyano-4-((2-methoxyethyl)amino)pyridin-2-yl)-6-((4-ethyl-2-oxopiperazin-1-yl)methyl)-7-formyl-3,4-dihydro-1,8-naphthyridine-1(2H)-carboxamide] | – | – |
| 9.1 | 2.8 | CC(C)Oc1cc(NC(=O)N2CCCc3cc(CO)c(C=O)nc32)ncc1C#N [N-(5-cyano-4-isopropoxypyridin-2-yl)-7-formyl-6-(hydroxymethyl)-3,4-dihydro-1,8-naphthyridine-1(2H)-carboxamide] | – | – |
| 7.1 | 1.3 | COCCNc1cc(NC(=O)N2CCCc3cc(CN4CCN(C)C(=O)C4)c(C=O)nc32)ncc1C#N [N-(5-cyano-4-((2-methoxyethyl)amino)pyridin-2-yl)-7-formyl-6-((4-methyl-3-oxopiperazin-1-yl)methyl)-3,4-dihydro-1,8-naphthyridine-1(2H)-carboxamide] | – | – |
| 6.9 | 1.3 | CCOc1cc(NC(=O)N2CCCc3cc(CN4CCN(C)CC4=O)c(C=O)nc32)ncc1C#N [N-(5-cyano-4-ethoxypyridin-2-yl)-7-formyl-6-((4-methyl-2-oxopiperazin-1-yl)methyl)-3,4-dihydro-1,8-naphthyridine-1(2H)-carboxamide] | – | – |
| 5.8 | 0.6 | COCCNc1cc(NC(=O)N2CCCc3cc(CN4C[C@@H](N(C)C)CC4=O)c(C=O)nc32)ncc1C#N [(S)-N-(5-cyano-4-((2-methoxyethyl)amino)pyridin-2-yl)-6-((4-(dimethylamino)-2-oxopyrrolidin-1-yl)methyl)-7-formyl-3,4-dihydro-1,8-naphthyridine-1(2H)-carboxamide] | – | – |
